Assay results taken from the NIST ThermoML archive (doi:10.1021/je400576e).
Numbers after ± are expanded uncertainties.

Conditions: for viscosity / mass density: 101 kPa, Liquid; for mass density: Vibrating tube method

| SMILES | surface tension liquid-gas (293.15 K) [mN/m] | viscosity (293.15 K) [mPa·s] | mass density (293.15 K) [kg/m3] | surface tension liquid-gas (298.15 K) [mN/m] | viscosity (298.15 K) [mPa·s] | mass density (298.15 K) [kg/m3] | surface tension liquid-gas (303.15 K) [mN/m] | viscosity (303.15 K) [mPa·s] | mass density (303.15 K) [kg/m3] | surface tension liquid-gas (313.15 K) [mN/m] | viscosity (313.15 K) [mPa·s] | mass density (313.15 K) [kg/m3] | surface tension liquid-gas (323.15 K) [mN/m] | viscosity (323.15 K) [mPa·s] | mass density (323.15 K) [kg/m3] | surface tension liquid-gas (333.15 K) [mN/m] | viscosity (333.15 K) [mPa·s] | mass density (333.15 K) [kg/m3] |
| --- | --- | --- | --- | --- | --- | --- | --- | --- | --- | --- | --- | --- | --- | --- | --- | --- | --- | --- |
| COP(=O)([O-])OC.Cn1cc[n+](C)c1 [1,3-dimethylimidazolium dimethylphosphate] | 47.78 ± 1.5 | 381.22 ± 65 | 1254 ± 9 | 46.98 ± 1.5 | 336.74 ± 56 | 1250 ± 9 | 46.21 ± 1.4 | 221.41 ± 34 | 1247 ± 9 | 44.89 ± 1.4 | 178.66 ± 26 | 1240 ± 9 | 42.67 ± 1.4 | 147.95 ± 21 | 1233 ± 9 | 41.99 ± 1.3 | 133.73 ± 19 | 1230 ± 8 |
| CCOP(=O)([O-])OCC.CCn1cc[n+](C)c1 [1-ethyl-3-methylimidazolium diethyl phosphate] | 34.78 ± 1.3 | 537.03 ± 99 | 1151 ± 10 | 34.46 ± 1.3 | 320.89 ± 53 | 1146 ± 9 | 34.19 ± 1.2 | 284.34 ± 46 | 1141 ± 9 | 33.54 ± 1.2 | 150.96 ± 22 | 1130 ± 9 | 33.15 ± 1.2 | 90.02 ± 12 | 1116 ± 9 | 32.81 ± 1.2 | 58.02 ± 7.5 | 1103 ± 9 |
| CCCO [propan-1-ol] | 23.67 ± 0.72 | 2.2 ± 0.28 | 804 ± 5 | 23.31 ± 0.72 | 1.99 ± 0.26 | 800.1 ± 5.1 | 22.81 ± 0.7 | 1.73 ± 0.22 | 796 ± 5 | 22.19 ± 0.69 | 1.38 ± 0.18 | 788 ± 5 | 21.34 ± 0.67 | 1.12 ± 0.15 | 780 ± 5 | 20.66 ± 0.65 | 0.91 ± 0.12 |  |
| CC(C)O [propan-2-ol] | 21.28 ± 0.67 | 2.41 ± 0.31 | 786 ± 5 | 20.94 ± 0.66 | 2.06 ± 0.27 | 781 ± 5 | 20.54 ± 0.65 | 1.79 ± 0.23 | 777 ± 5 | 19.97 ± 0.64 | 1.35 ± 0.17 | 768 ± 5 | 18.87 ± 0.61 | 1.03 ± 0.13 | 759 ± 5 | 18.11 ± 0.59 | 0.82 ± 0.11 | 750 ± 5 |
